# Source: US20130296311A1, “INHIBITORS OF HCV NS5A” (PRESIDIO PHARMACEUTICALS, INC., priority 2010, published 2013)
# Test system: HCV 1b_Huh-Luc/Neo-ET cell line persistently expressing a bicistronic genotype 1b replicon in Huh 7 cells
# Assay: HCV replicon assay (luciferase readout, 72 h)
# Type: cell-based, HCV genotype 1b
# Settings: Hepatitis C virus, Huh-7, read-out: Inhibition of HCV genotype 1b
# How it was run: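 Huh 7 cells carrying a bicistronic genotype 1b luciferase/neo replicon received compound in triplicate the day after plating. After 72 h, replicon levels were read as Bright-Glo luciferase activity, expressed as % of control; EC50 was fitted with a four-parameter logistic and determined several times.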
row,Compound,EC50 [nM]
1,COC(=O)N[C@H](C(=O)N1CCN(C(=O)OC)C[C@H]1c1ncc(-c2ccc(C#Cc3ccc4nc([C@@H]5CCCN5C(=O)[C@H](NC(=O)OC5CCOCC5)c5ccccc5)[nH]c4c3)cc2)[nH]1)C(C)C [Compound 1231],< 1
2,COC(=O)N[C@H](C(=O)N1CCN(C(C)=O)C[C@H]1c1ncc(-c2ccc(C#Cc3ccc4nc([C@@H]5CCCN5C(=O)[C@@H](NC(=O)OC)C(C)C)[nH]c4c3)cc2)[nH]1)C(C)C [Compound 1232],< 1
3,COC(=O)N[C@@H](C(=O)N1CCN(C(C)=O)C[C@H]1c1ncc(-c2ccc(C#Cc3ccc4nc([C@@H]5CCCN5C(=O)[C@H](NC(=O)OC)c5ccccc5)[nH]c4c3)cc2)[nH]1)c1ccccc1 [Compound 1233],< 1
4,COC(=O)N[C@H](C(=O)N1CCN(C(C)=O)C[C@H]1c1ncc(-c2ccc(C#Cc3ccc4nc([C@@H]5CCCN5C(=O)[C@@H](NC(=O)OC)C5CCOCC5)[nH]c4c3)cc2)[nH]1)C1CCOCC1 [Compound 1234],1 to 9.9
5,COC(=O)N[C@H](C(=O)N1CCC[C@H]1c1nc2ccc(C#Cc3ccc(-c4cnc([C@@H]5CCCN5C(=O)[C@@H](NC(=O)OC)[C@@H](C)OC)[nH]4)cc3)cc2[nH]1)C(C)C [Compound 1235],< 1
6,COC[C@H](NC(=O)OC)C(=O)N1CCC[C@H]1c1ncc(-c2ccc(C#Cc3ccc4nc([C@@H]5CCCN5C(=O)[C@@H](NC(=O)OC)C(C)C)[nH]c4c3)cc2)[nH]1 [Compound 1236],< 1
7,COC(=O)N[C@H](C(=O)N1CCC[C@H]1c1nc2ccc(C#Cc3ccc(-c4cnc([C@@H]5CCCN5C(=O)[C@@H](NC(=O)OC)C5CCOCC5)[nH]4)cc3)cc2[nH]1)C(C)C [Compound 1237],< 1
8,COC(=O)N[C@H](C(=O)N1CCC[C@H]1CNC(=O)c1ccc(C#Cc2ccc3nc([C@@H]4CCCN4C(=O)[C@@H](NC(=O)OC)C(C)C)[nH]c3c2)cc1)C(C)C [Compound 1238],< 1
9,COC(=O)N[C@H](C(=O)N1CCC[C@H]1CNC(=O)c1ccc(C#Cc2ccc3nc([C@@H]4CCCN4C(=O)[C@@H](NC(=O)OC)C(C)C)[nH]c3c2)cn1)C(C)C [Compound 1240],10 to 999
10,COC(=O)N[C@@H](C(=O)N1CCC[C@H]1CNC(=O)c1ccc(C#Cc2ccc3nc([C@@H]4CCCN4C(=O)[C@H](NC(=O)OC)c4ccccc4)[nH]c3c2)cn1)c1ccccc1 [Compound 1241],< 1
11,COC(=O)N[C@H](C(=O)N1CCC[C@H]1c1ncc(-c2ccc(C#Cc3ccc4nc([C@@H]5CCCN5C(=O)[C@@H](NC(=O)OC)[C@@H](C)OC)[nH]c4c3)cc2)[nH]1)C(C)C [Compound 1242],< 1
12,COC[C@H](NC(=O)OC)C(=O)N1CCC[C@H]1c1nc2ccc(C#Cc3ccc(-c4cnc([C@@H]5CCCN5C(=O)[C@@H](NC(=O)OC)C(C)C)[nH]4)cc3)cc2[nH]1 [Compound 1243],< 1
13,COC(=O)N[C@H](C(=O)N1CCC[C@H]1c1ncc(-c2ccc(C#Cc3ccc4nc([C@@H]5CCCN5C(=O)[C@@H](NC(=O)OC)C5CCCOC5)[nH]c4c3)cc2)[nH]1)C(C)C (stereo partly shown) [Compound 1244],< 1
14,CC[C@H](NC(=O)OC)C(=O)N1CCC[C@H]1c1nc2ccc(C#Cc3ccc(-c4cnc([C@@H]5CCCN5C(=O)[C@@H](NC(=O)OC)[C@@H](C)OC)[nH]4)cc3)cc2[nH]1 [Compound 1245],< 1
15,CC[C@H](C)C(NC(=O)OC)C(=O)N1CCC[C@H]1c1nc2ccc(C#Cc3ccc(-c4cnc([C@@H]5CCCN5C(=O)[C@@H](NC(=O)OC)[C@@H](C)OC)[nH]4)cc3)cc2[nH]1 (stereo partly shown) [Compound 1246],< 1
16,CC[C@H](NC(=O)OC)C(=O)N1CCC[C@H]1c1ncc(-c2ccc(C#Cc3ccc4nc([C@@H]5CCCN5C(=O)[C@@H](NC(=O)OC)[C@@H](C)OC)[nH]c4c3)cc2)[nH]1 [Compound 1247],< 1

row,Compound,EC50 [nM]
1,CC[C@H](C)[C@H](NC(=O)OC)C(=O)N1CCC[C@H]1c1ncc(-c2ccc(C#Cc3ccc4nc([C@@H]5CCCN5C(=O)[C@@H](NC(=O)OC)[C@@H](C)OC)[nH]c4c3)cc2)[nH]1 [Compound 1248],< 1
2,COC(=O)N[C@H](C(=O)N1CCC[C@H]1c1ncc(-c2ccc(C#Cc3ccc4nc([C@@H]5CCCN5C(=O)[C@@H](NC(=O)OC)C(C)C)[nH]c4n3)cc2)[nH]1)C(C)C [Compound 1249],< 1
3,COC(=O)N[C@H](C(=O)N1CCC[C@H]1c1ncc(-c2ccc(C#Cc3ccc4nc([C@@H]5CCCN5C(=O)[C@@H](NC(=O)OC)C5CCCC5)[nH]c4n3)cc2)[nH]1)C1CCCC1 [Compound 1250],< 1
4,CC[C@H](C)[C@H](NC(=O)OC)C(=O)N1CCC[C@H]1c1ncc(-c2ccc(C#Cc3ccc4nc([C@@H]5CCCN5C(=O)[C@@H](NC(=O)OC)[C@@H](C)CC)[nH]c4n3)cc2)[nH]1 [Compound 1251],< 1
5,COC(=O)N[C@H](C(=O)N1CCC[C@H]1c1ncc(-c2ccc(C#Cc3ccc4nc([C@@H]5CCCN5C(=O)[C@@H](NC(=O)OC)[C@@H](C)OC)[nH]c4n3)cc2)[nH]1)[C@@H](C)OC [Compound 1252],< 1
6,CC[C@H](C)[C@H](NC(=O)OC)C(=O)N1CCC[C@H]1c1ncc(-c2ccc3cc(C#Cc4[nH]c([C@@H]5CCCN5C(=O)[C@@H](NC(=O)OC)[C@@H](C)CC)nc4C(F)(F)F)ccc3c2)[nH]1 [Compound 1253],< 1
7,COC(=O)N[C@H](C(=O)N1CCC[C@H]1c1ncc(-c2ccc3cc(C#Cc4[nH]c([C@@H]5CCCN5C(=O)[C@@H](NC(=O)OC)C5CCCC5)nc4C(F)(F)F)ccc3c2)[nH]1)C1CCCC1 [Compound 1254],< 1
8,COC(=O)N[C@H](C(=O)N1CCC[C@H]1c1ncc(-c2ccc3cc(C#Cc4[nH]c([C@@H]5CCCN5C(=O)[C@@H](NC(=O)OC)[C@@H](C)OC)nc4C(F)(F)F)ccc3c2)[nH]1)[C@@H](C)OC [Compound 1255],< 1
9,COC(=O)N[C@H](C(=O)N1CCC[C@H]1c1ncc(-c2ccc3cc(C#Cc4[nH]c([C@@H]5CCCN5C(=O)[C@@H](NC(=O)OC)C5CCOCC5)nc4C(F)(F)F)ccc3c2)[nH]1)C1CCOCC1 [Compound 1256],< 1
10,COC(=O)N[C@H](C(=O)N1CCC[C@H]1c1ncc(-c2ccc3cc(C#Cc4[nH]c([C@@H]5CCCN5C(=O)[C@@H](NC(=O)OC)C(C)C)nc4C#N)ccc3c2)[nH]1)C(C)C [Compound 1257],< 1
11,COC(=O)N[C@H](C(=O)N1CCC[C@H]1c1ncc(-c2ccc3cc(C#Cc4[nH]c([C@@H]5CCCN5C(=O)[C@@H](NC(=O)OC)[C@@H](C)OC)nc4C(F)(F)F)ccc3c2)[nH]1)C(C)C [Compound 1258],< 1
12,CC[C@H](C)[C@H](NC(=O)OC)C(=O)N1CCC[C@H]1c1ncc(-c2ccc3cc(C#Cc4[nH]c([C@@H]5CCCN5C(=O)[C@@H](NC(=O)OC)[C@@H](C)OC)nc4C(F)(F)F)ccc3c2)[nH]1 [Compound 1259],< 1
13,COC(=O)N[C@H](C(=O)N1CCC[C@H]1c1ncc(-c2ccc3cc(C#Cc4[nH]c([C@@H]5CCCN5C(=O)[C@@H](NC(=O)OC)[C@@H](C)OC)nc4C(F)(F)F)ccc3c2)[nH]1)C1CCCC1 [Compound 1260],< 1
14,COC(=O)N[C@H](C(=O)N1CCC[C@H]1c1nc(C(F)(F)F)c(C#Cc2ccc3cc(-c4cnc([C@@H]5CCCN5C(=O)[C@@H](NC(=O)OC)[C@@H](C)OC)[nH]4)ccc3c2)[nH]1)C(C)C [Compound 1261],< 1
15,CC[C@H](C)[C@H](NC(=O)OC)C(=O)N1CCC[C@H]1c1nc(C(F)(F)F)c(C#Cc2ccc3cc(-c4cnc([C@@H]5CCCN5C(=O)[C@@H](NC(=O)OC)[C@@H](C)OC)[nH]4)ccc3c2)[nH]1 [Compound 1262],< 1
